Experiment [1] has as its system protein synthesis in rabbit reticulocyte lysates. Kind of experiment: Inhibition of protein synthesis in rabbit reticulocyte lysates (luciferase mRNA, luminescence). It is filed as biochemical. To be noted: for impact on protein synthesis: concentration range extending to 50 μM; for inhibition of translation: at 100 μM; for EC50: luciferase mRNA, 30 °C, 90 min, read-out: EC50 (50% inhibitory concentration). As for the experimental part: The dose–response change in chemoluminescense monitored in the presence of various concentrations of investigational drugs following addition of luciferin allows comparison across compounds.
Assay conditions were employed as recommended by the manufacturer. In summary, reactions (20 μL) contained 80% TNT Quick master mix, 20 µM methionine, and 40 ng/µL luciferase RNA (Promega; L4561) at the indicated concentration of test chemicals. Samples were incubated at 30 °C for 90 min and diluted ten-fold with PBS. An aliquot (2 μL) was mixed with 20 μL of luciferase assay reagent (Promega; E1500) and luminescence was measured with a Turner Designs Model TD-20/20 Luminometer. Depending on the compound evaluated, experiments were repeated two-four times with good agreement between the runs. […] The results are reported as average values including the mean and standard deviation wherever applicable.

The target in experiment [2] is SARS-CoV-2 RdRp (nsp12/7/8 complex) (Severe acute respiratory syndrome coronavirus 2, UniProt P0DTD1). Kind of experiment: Inhibition of SARS-CoV-2 RdRp active complex (RNA extension assay). Type of experiment: biochemical. The settings on record: RdRp-mediated RNA replication, 37 °C, 60 min, 1 μM RdRp complex.
In another experiment the test system is HIV-1. To be noted: among low molecular weight ATA components ref 39, 43; cited from earlier work.
Experiment [3] deals with T1, human serum albumin (HSA) (Homo sapiens, UniProt P02768).
T1 construct: purchased Millipore Sigma A1887
Kind of experiment: HSA binding energetics via isothermal titration calorimetry (ITC). To be noted: for TΔS / ΔG / ΔH: pH 7.4. The protocol: The resultant heats are integrated to yield a binding profile (bottom panel) that is fit via nonlinear least squares analysis to a single site model (red line).
The protein was prepared as described in Section 5.1 and dialyzed exhaustively against a buffer comprised of 10 mM sodium phosphate adjusted to pH 7.4. […] Each ITC experiment consisted of thirty consecutive 10.0 µL injections during which the reaction heat is monitored and integrated over a 5.0 min period under continuous stirring. The experimental protocol has been designed to ensure that there is a tenfold excess of ligand in the titration syringe relative to standard protein concentration in the sample cell. The resultant binding isotherms are generated by recording the integrated reaction heats normalized for ligand concentration versus the HSA:ligand ratio. A nonlinear least squares fit of the resultant profile to a single site binding model yields thermodynamic parameters for the HSA–ligand complex including the affinity (Ka), Gibbs free energy (ΔG), enthalpy (ΔH), and entropy (ΔS).
On the technique in general: Isothermal titration calorimetry measures the heat released or taken up as one component is titrated into another.

A further experiment deals with yeast 80S ribosomes. Kind of experiment: Ligand–ribosome binding via fluorescence anisotropy. (In general: Fluorescence polarisation rises when a labelled molecule tumbles more slowly, as on binding a larger partner.)
The test system of a further experiment is hCoV-OC43. Description: Antiviral properties in hCoV-OC43 and VERO E6 cells (data not shown). Type of experiment: cell-based. To be noted: concentrations ≥200 μM.
Experiment [4] has as its system protein synthesis in Vero E6 cells. Description: Protein synthesis in cultured cells: puromycin pulse labeling and immunoblotting. Type of experiment: cell-based, African green monkey. The protocol: Prior to the experiment, Vero E6 cells were seeded at 30,000 cells per cm^2 in 6-well plates in 5% FBS-EMEM. […] Control experiments were conducted in the absence and presence of cycloheximide (1–150 μM) or DMSO. Following incubation with puromycin for 10 min, the medium was quickly removed and cells washed with warm PBS and allowed to recover in drug-free 5% FBS-EMEM for 30 min. Cell pellets collected by trypsinization and centrifugation were stored at −80 °C while awaiting protein preparation and immunoblotting as described below.
Cell lysates were prepared in RIPA (radio-immunoprecipitation) buffer (Sigma; R0278) containing protease inhibitors (Sigma; P8340). Protein concentrations were determined via the Pierce^TM bicinconinic acid (BCA) assay (Thermo Fisher Scientific, Waltham, MA, USA) using bovine serum albumin as a standard. All procedures were performed in accordance with protocols recommended by the manufacturers. For immunoblotting, 8 μg of protein was combined with Laemmli buffer containing 10% β-mercaptoethanol, heated at 95 °C for 5 min and loaded on 8–16% Mini-PROTEAN® TGX™ precast protein gels. Samples were resolved via electrophoresis in Tris-Gly-SDS buffer and transferred to nitrocellulose membranes in Tris-Gly buffer containing 20% methanol at 4–6 V/cm^2 for one hour. Membranes were blocked in 10 mM sodium phosphate buffer containing 150 mM NaCl (pH 7.8), 5% milk and 0.1% TWEEN20 (PBST) at room temperature for at least one hour, then incubated overnight with primary anti-puromycin antibodies (TFS; MABE343 mouse monoclonal antibodies clone 12D10; 1:25,000) at 4 °C. […]
For β-actin staining, the same membranes used for puromycin immunostaining were washed four times for five min with 20 mM Tris-buffered saline containing 500 mM sodium chloride (pH 7.5) and 0.1% TWEEN20 (TBST) and stripped by two rounds of 20- and 10-min washes at 50 °C in glycine buffer (pH 2.2) containing 0.1% SDS (w/v) and 1% TWEEN20. […] The results were quantified with Image J 1.52a software using β-actin staining for each sample as an internal reference.
For orientation: A western blot detects proteins with antibodies after separation by electrophoresis.

The mark [5] stands for this setting: ITC, 25.0 °C, listed as Dichlorohexamer.

Several values for one entry are separate records, joined by “and”; a condition that tells them apart may be missing. Equal values may be shown once.

By IC50 is commonly meant the point on the concentration scale where inhibition reaches its midpoint. Read a high IC50 as weaker potency. A word on the Kd: it is the constant that tells how readily two partners part at equilibrium. A high value points to a looser complex.

T1 sequence (P02768 25-609): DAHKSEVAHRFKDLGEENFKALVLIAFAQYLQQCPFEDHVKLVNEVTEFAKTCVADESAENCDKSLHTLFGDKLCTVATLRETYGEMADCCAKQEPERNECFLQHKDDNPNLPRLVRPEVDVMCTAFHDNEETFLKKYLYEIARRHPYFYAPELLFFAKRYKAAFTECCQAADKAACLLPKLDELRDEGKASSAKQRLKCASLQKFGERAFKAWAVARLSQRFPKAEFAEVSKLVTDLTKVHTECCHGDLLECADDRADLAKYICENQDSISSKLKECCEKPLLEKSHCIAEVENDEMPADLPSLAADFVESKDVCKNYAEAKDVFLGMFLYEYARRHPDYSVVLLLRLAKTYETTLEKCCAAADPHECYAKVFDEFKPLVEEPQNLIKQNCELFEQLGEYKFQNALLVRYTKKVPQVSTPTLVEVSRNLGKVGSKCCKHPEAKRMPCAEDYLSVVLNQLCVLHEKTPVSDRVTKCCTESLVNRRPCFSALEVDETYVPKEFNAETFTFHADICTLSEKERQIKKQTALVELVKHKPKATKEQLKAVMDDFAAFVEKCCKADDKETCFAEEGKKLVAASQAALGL

Regarding `O=C(O)c1cc(Cc2cc(Cc3cc(Cc4ccc(O)c(C(=O)O)c4)c(O)c(C(=O)O)c3)cc(C(=O)O)c2O)ccc1O` [compound 9], the “impact on protein synthesis” value in experiment [1] is reported as “did not impact protein synthesis”. Also, the half-maximal inhibitory concentration (IC50) in experiment [2] is 514 µM and ~514 µM.
`O=C(O)c1cc(Cc2cc(Cc3ccc(O)c(C(=O)O)c3)c(O)c(C(=O)O)c2)ccc1O` [compound 3]: the “activity against HIV-1” value in the experiment with HIV-1 is “most active”.
Consider `O=C(O)c1cc(Cc2cc(Cc3cc(Cc4cc(Cc5cc(Cc6cc(Cl)c(O)c(C(=O)O)c6)c(O)c(C(=O)O)c5)c(O)c(C(=O)O)c4)cc(C(=O)O)c3O)cc(C(=O)O)c2O)cc(Cl)c1O` [compound 11], for which the inhibition of translation was approximately 100% in experiment [1] and “completely inhibited translation” in experiment [1] (signal comparable to background). Also, in experiment [1], the EC50 is 28.1 µM. The Kd in experiment [3] (ITC, 25.0 °C, 10 mM sodium phosphate pH 7.4) is 1 ± 0.1 µM; at yeast 80S ribosomes (25 °C, fluorescence anisotropy), 0.21 ± 0.02 µM; at yeast 80S ribosomes (purified yeast ribosomes, discussion value), approximately 0.2 µM. Besides, in experiment [3] (ITC, 25.0 °C, 10 mM sodium phosphate pH 7.4, single site model), the “Ka × 10^5” value was 9.9 ± 0.5 10^5 M^−1. Further, the TΔS was -29.7 kJ/mol in experiment [3] (ITC, 25.0 °C) and -29.7 ± 0.84 kJ/mol in experiment [3] (setting [5]). The ΔG in experiment [3] (ITC, 25.0 °C) is -33.5 kJ/mol; in experiment [3] (setting [5]), -33.5 ± 0.84 kJ/mol. The ΔH in experiment [3] (ITC, 25.0 °C) was -63.2 kJ/mol; in experiment [3] (setting [5]), -63.2 ± 0.84 kJ/mol. The molecule further came in with a stoichiometry n in experiment [3] (ITC, per monomeric unit of ATA (Mw 422.34) or per dichlorohexamer (Mw 956)) of 1.0 ±0.0. In experiment [3] (chlorinated hexamer versus heterogeneous polymeric ATA, HSA binding), the ΔΔG was determined as 1.7 kJ/mol. Besides, the “affinity (double reciprocal plot)” value in the experiment with yeast 80S ribosomes (25 °C, ligand 1 μM, excitation/emission 305/420 nm) is given as 4.8 × 10 ^6 M^−1. In addition, the antiviral properties entry in the experiment with hCoV-OC43 is “modest activity”. The same molecule yielded an IC50 in experiment [2] of 0.108 µM.
Turning to `O=C(O)c1cc(Cc2cc(Cc3cc(Cc4cc(Cl)c(O)c(C(=O)O)c4)c(O)c(C(=O)O)c3)cc(C(=O)O)c2O)cc(Cl)c1O` [compound 8], the “impact on protein synthesis” value in experiment [1] is listed as “did not impact protein synthesis”. Moreover, the IC50 in experiment [2] was 163 µM and ~163 µM.
Consider `C[C@@H]1C[C@@H]([C@H](O)CC2CC(=O)NC(=O)C2)C(=O)[C@@H](C)C1` [Cycloheximide], for which, in experiment [1], the EC50 stood at 0.106 µM. Also, the activity at 150 µM in experiment [4] (Chlorocebus sabaeus, Vero C1008, 150 uM, read-out: % activity (anti-puromycin/b-actin densitometry)) was -3.99%. In addition, in experiment [4] (Chlorocebus sabaeus, Vero C1008, 300 uM, read-out: % activity (anti-puromycin/b-actin densitometry)), the activity at 300 µM is -3.95%. Besides, the “concentration that inhibits protein synthesis” value in experiment [4] (puromycin labeling) amounted to 1 µM.
`O=C(O)c1cc(Cc2cc(C(c3ccc(O)c(C(=O)O)c3)c3ccc(O)c(C(=O)O)c3)cc(C(=O)O)c2O)ccc1O` [compound 2]: the “activity against HIV-1” value in the experiment on HIV-1 is given as “most active”.

Values taken from article PMC9227171 (Life, 2022).
